Data from US20250312469A1 (CANGET BIOTEKPHARMA, priority 2024, published 2025).
Read-outs that look alike come from different tables or passages of the source. Marks after values point to notes of the source that are not given here.

[1] = Female, 4.69→ 2 mg/kg/wk, Day 15
[2] = female rats, 4.69→2 mg/kg/wk, Day 15
[3] = female rats, Group 3, 3.75/2.5 mg/kg/wk oral, Day 15
[4] = female rats, Group 4, 4.69/2 mg/kg/wk oral, Day 15
[5] = male rats, 4.69→2 mg/kg/wk, Day 15, 2 animals
[6] = male rats, Group 2, 3 mg/kg/wk, Day 15
[7] = male rats, Group 2, 3 mg/kg/wk, Day 15, vs Group 1
[8] = male rats, Group 3, 3.75/2.5 mg/kg/wk oral, Day 15
[9] = male rats, Group 3, 3.75/2.5 mg/kg/wk, Day 15
[10] = male rats, Group 3, 3.75/2.5 mg/kg/wk, Day 15, vs Group 1
[11] = male rats, Group 4, 4.69/2 mg/kg/wk oral, Day 15, N 2, vs vehicle Group 1
[12] = male rats, Group 4, 4.69/2 mg/kg/wk, Day 15, vs Group 1

CCC1(O)C(=O)OCc2c1cc1n(c2=O)Cc2cc3cc4c(cc3nc2-1)OCO4 (centres unmarked) [FL118]
decrease of body weight, males, Day 14 (3 mg/kg/wk): 18.15% | decrease of body weight, males, Day 14 (3.75→2.5 mg/kg/wk): 17.41% | mortality (4.69 (day 1) and 2 mg/kg/wk (day 8)): two male mice died on day 6 and day 12 | decrease of body weight, males, Day 14 (4.69→2 mg/kg/wk): 47.53% | #LYMP, percent difference in mean values from concurrent controls [1]: −37.76% | WBC, percent difference in mean values from concurrent controls [1]: −33.69% | WBC, percent difference in mean values from concurrent controls (Male, 3 mg/kg/wk, Day 15): −16.11% | WBC, percent difference in mean values from concurrent controls (Male, 3.75→ 2.5 mg/kg/wk, Day 15): −11.98% | #LYMP, percent difference in mean values from concurrent controls (Male, 4.69→ 2 mg/kg/wk, Day 15): −57.17% | WBC, percent difference in mean values from concurrent controls (Male, 4.69→ 2 mg/kg/wk, Day 15): −52.17% | ALT, percent difference in mean values from concurrent controls [2]: 122% | sGLU, percent difference in mean values from concurrent controls [2]: −19.47% | #BASO, basophils, absolute, Mean [3]: 0.01 10^3/μL | #EOS, eosinophils, absolute, Mean [3]: 0.07 10^3/μL | #LYMP, lymphocytes, absolute, Mean [3]: 5.87 10^3/μL | #MONO, monocytes, absolute, Mean [3]: 0.17 10^3/μL | #NEUT, neutrophils, absolute, Mean [3]: 0.87 10^3/μL | % BASO, basophils, percent, Mean [3]: 0.2% | % EOS, eosinophils, percent, Mean [3]: 1.0% | % LYMP, lymphocytes, percent, Mean [3]: 83.5% | % MONO, monocytes, percent, Mean [3]: 2.4% | % NEUT, neutrophils, percent, Mean [3]: 12.1% | % RET, reticulocytes, percent, Mean [3]: 5.05% | ALB, albumin, Mean [3]: 37.5 g/L | ALP, alkaline phosphatase, Mean [3]: 83 U/L | ALT, alanine aminotransferase, Mean [3]: 33 U/L | AST, aspartate aminotransferase, Mean [3]: 89 U/L | BIL-T, total bilirubin, Mean [3]: 1.59 µmol/L | CK, creatine kinase, Mean [3]: 247 U/L | CRE, creatinine, Mean [3]: 24 µmol/L | Ca, calcium, Mean [3]: 2.42 mmol/L | GLB, globulin, Mean [3]: 23.0 g/L | HCT, hematocrit, Mean [3]: 19.8% | HGB, hemoglobin, Mean [3]: 13.2 g/dL | K, potassium, Mean [3]: 4.3 mmol/L | MCH, mean corpuscular hemoglobin, Mean [3]: 19.3 pg | MCHC, mean corpuscular hemoglobin concentration, Mean [3]: 33.3 g/dL | MCV, mean corpuscular volume, Mean [3]: 58.0 fL | MPV, mean platelet volume, Mean [3]: 6.8 fL | Na, sodium, Mean [3]: 142 mmol/L | P, inorganic phosphorus, Mean [3]: 2.20 mmol/L | PLT, platelet count, Mean [3]: 1295 10^3/μL | RBC, red blood cell, Mean [3]: 6.88 10^6/μL | RDW, RBC distribution width, Mean [3]: 12.9* % | TCHO, total cholesterol, Mean [3]: 1.70 mmol/L | TG, triglyceride, Mean [3]: 0.26 mmol/L | UREA, urea, Mean [3]: 6.29 mmol/L | WBC, white blood cell, Mean [3]: 7.03 10^3/μL | sGLU, glucose, Mean [3]: 9.43 mmol/L | #BASO, basophils, absolute, Mean [4]: 0.01 10^3/μL | #EOS, eosinophils, absolute, Mean [4]: 0.05 10^3/μL | #LYMP, lymphocytes, absolute, Mean [4]: 4.03 10^3/μL | #MONO, monocytes, absolute, Mean [4]: 0.13 10^3/μL | #NEUT, neutrophils, absolute, Mean [4]: 0.62 10^3/μL | % BASO, basophils, percent, Mean [4]: 0.1% | % EOS, eosinophils, percent, Mean [4]: 1.0% | % LYMP, lymphocytes, percent, Mean [4]: 82.7% | % MONO, monocytes, percent, Mean [4]: 2.9% | % NEUT, neutrophils, percent, Mean [4]: 12.7% | % RET, reticulocytes, percent, Mean [4]: 4.79% | ALB, albumin, Mean [4]: 36.6 g/L | ALP, alkaline phosphatase, Mean [4]: 88 U/L | ALT, alanine aminotransferase, Mean [4]: 75 U/L | AST, aspartate aminotransferase, Mean [4]: 222 U/L | BIL-T, total bilirubin, Mean [4]: 2.66 µmol/L | CK, creatine kinase, Mean [4]: 427 U/L | CRE, creatinine, Mean [4]: 24 µmol/L | Ca, calcium, Mean [4]: 2.37 mmol/L | GLB, globulin, Mean [4]: 22.0 g/L | HCT, hematocrit, Mean [4]: 40.0% | HGB, hemoglobin, Mean [4]: 13.6 g/dL | K, potassium, Mean [4]: 4.6 mmol/L | MCH, mean corpuscular hemoglobin, Mean [4]: 19.6 pg | MCHC, mean corpuscular hemoglobin concentration, Mean [4]: 33.8 g/dL | MCV, mean corpuscular volume, Mean [4]: 57.8 fL | MPV, mean platelet volume, Mean [4]: 6.7 fL | Na, sodium, Mean [4]: 142 mmol/L | P, inorganic phosphorus, Mean [4]: 1.92 mmol/L | PLT, platelet count, Mean [4]: 1278 10^3/μL | RBC, red blood cell, Mean [4]: 6.94 10^6/μL | RDW, RBC distribution width, Mean [4]: 13.7* % | TCHO, total cholesterol, Mean [4]: 1.37 mmol/L | TG, triglyceride, Mean [4]: 0.29 mmol/L | TP, total protein, Mean [4]: 58.5 g/L | UREA, urea, Mean [4]: 9.54 mmol/L | WBC, white blood cell, Mean [4]: 4.85 10^3/μL | sGLU, glucose, Mean [4]: 8.25 mmol/L | ALT, percent difference in mean values from concurrent controls (male rats, 3 mg/kg/wk, Day 15): 19% | ALT, percent difference in mean values from concurrent controls (male rats, 3.75→2.5 mg/kg/wk, Day 15): 34% | ALT, percent difference in mean values from concurrent controls [5]: 275% | sGLU, percent difference in mean values from concurrent controls [5]: −59.96% | #BASO Mean [6]: 0.02 10^3/μL | #EOS Mean [6]: 0.06 10^3/μL | #LYMP Mean [6]: 7.94 10^3/μL | #MONO Mean [6]: 0.21 10^3/μL | #NEUT Mean [6]: 0.72 10^3/μL | #RET Mean [6]: 337.2 10^9/L | % BASO Mean [6]: 0.2% | % EOS Mean [6]: 0.7% | % LYMP Mean [6]: 88.2% | % MONO Mean [6]: 2.5% | % NEUT Mean [6]: 7.9% | % RET Mean [6]: 4.68% | HCT Mean [6]: 42.1* % | MCH Mean [6]: 19.2 pg | MCHC Mean [6]: 32.8 g/dL | MCV Mean [6]: 58.3 fL | MPV Mean [6]: 6.6 fL | PLT Mean [6]: 1172 10^3/μL | RBC Mean [6]: 7.22 10^6/μL | RDW Mean [6]: 13.5** % | WBC Mean [6]: 9.01 10^3/μL | #BASO % Diff [7]: −25.00% | #EOS % Diff [7]: −43.40% | #LYMP % Diff [7]: −13.38% | #MONO % Diff [7]: −25.17% | #NEUT % Diff [7]: −34.07% | #RET % Diff [7]: 53.1% | % BASO % Diff [7]: −8.3% | % EOS % Diff [7]: −35.2% | % LYMP % Diff [7]: 3.7% | % MONO % Diff [7]: −6.6% | % NEUT % Diff [7]: −24.1% | % RET % Diff [7]: 62.09% | HCT % Diff [7]: −8.0% | HGB % Diff [7]: −8.9% | MCHC % Diff [7]: −0.8% | MCV % Diff [7]: −2.7% | MPV % Diff [7]: −2.7% | PLT % Diff [7]: 14% | RDW % Diff [7]: 15.7% | WBC % Diff [7]: −16.11% | ALB, albumin, Mean [8]: 34.1 g/L | ALP, alkaline phosphatase, Mean [8]: 113 U/L | ALT, alanine aminotransferase, Mean [8]: 47 U/L | AST, aspartate aminotransferase, Mean [8]: 104 U/L | BIL-T, total bilirubin, Mean [8]: 1.83 | CK, creatine kinase, Mean [8]: 296 U/L | CRE, creatinine, Mean [8]: 19 µmol/L | Ca, calcium, Mean [8]: 2.41 mmol/L | GLB, globulin, Mean [8]: 22.0 g/L | K, potassium, Mean [8]: 5.0 mmol/L | Na, sodium, Mean [8]: 143 mmol/L | P, inorganic phosphorus, Mean [8]: 2.38 mmol/L | TCHO, total cholesterol, Mean [8]: 1.73* mmol/L | TG, triglyceride, Mean [8]: 0.33 mmol/L | TP, total protein, Mean [8]: 56.1 g/L | UREA, urea, Mean [8]: 5.60 mmol/L | sGLU, glucose, Mean [8]: 10.18 mmol/L | #BASO Mean [9]: 0.02 10^3/μL | #EOS Mean [9]: 0.07 10^3/μL | #LYMP Mean [9]: 8.02 10^3/μL | #MONO Mean [9]: 0.23 10^3/μL | #NEUT Mean [9]: 1.04 10^3/μL | #RET Mean [9]: 342.9 10^9/L | % BASO Mean [9]: 0.2% | % EOS Mean [9]: 0.8% | % LYMP Mean [9]: 84.7% | % MONO Mean [9]: 2.4% | % NEUT Mean [9]: 11.2% | % RET Mean [9]: 4.74% | HCT Mean [9]: 42.3* % | HGB Mean [9]: 13.8** g/dL | MCH Mean [9]: 19.0 pg | MCHC Mean [9]: 32.6 g/dL | MCV Mean [9]: 58.2 fL | MPV Mean [9]: 6.5 fL | PLT Mean [9]: 1129 10^3/μL | RDW Mean [9]: 14.1*** % | WBC Mean [9]: 9.43 10^3/μL | #EOS % Diff [10]: −30.19% | #LYMP % Diff [10]: −12.51% | #MONO % Diff [10]: −18.88% | #NEUT % Diff [10]: −4.40% | #RET % Diff [10]: 55.7% | % EOS % Diff [10]: −22.2% | % LYMP % Diff [10]: −0.4% | % MONO % Diff [10]: −10.3% | % NEUT % Diff [10]: 7.9% | % RET % Diff [10]: 64.10% | HCT % Diff [10]: −7.5% | HGB % Diff [10]: −8.6% | MCHC % Diff [10]: −1.3% | MCV % Diff [10]: −2.9% | PLT % Diff [10]: 10% | RDW % Diff [10]: 20.5% | WBC % Diff [10]: −11.98% | ALB, albumin, % Diff [11]: −28.9% | ALP, alkaline phosphatase, % Diff [11]: −45% | ALT, alanine aminotransferase, % Diff [11]: 27.5% | AST, aspartate aminotransferase, % Diff [11]: 1.54% | BIL-T, total bilirubin, % Diff [11]: 187.51% | CK, creatine kinase, % Diff [11]: 13% | CRE, creatinine, % Diff [11]: −3% | Ca, calcium, % Diff [11]: −15.35% | Cl, chloride, % Diff [11]: −3% | K, potassium, % Diff [11]: 2.6% | Na, sodium, % Diff [11]: −1% | P, inorganic phosphorus, % Diff [11]: −13.59% | TCHO, total cholesterol, % Diff [11]: 9.81% | TG, triglyceride, % Diff [11]: 52.32% | TP, total protein, % Diff [11]: −33.1% | UREA, urea, % Diff [11]: 71.64% | sGLU, glucose, % Diff [11]: −50.96% | #BASO % Diff [12]: −58.33% | #EOS % Diff [12]: −95.28% | #LYMP % Diff [12]: −57.17% | #MONO % Diff [12]: −0.35% | #NEUT % Diff [12]: −19.87% | #RET % Diff [12]: −87.2% | % BASO % Diff [12]: −37.5% | % EOS % Diff [12]: −95.4% | % LYMP % Diff [12]: −11.9% | % MONO % Diff [12]: 76.5% | % NEUT % Diff [12]: 88.7% | % RET % Diff [12]: −87.53% | HCT % Diff [12]: 1.7% | HGB % Diff [12]: 7.1% | MCHC % Diff [12]: 5.4% | MCV % Diff [12]: −6.8% | MPV % Diff [12]: −5.3% | PLT % Diff [12]: −11% | RBC % Diff [12]: 8.98% | RDW % Diff [12]: 4.3% | WBC % Diff [12]: −52.17% | NOAEL, females (oral, once weekly): 3 mg/kg/wk | NOAEL, males (oral, once weekly): 2 mg/kg/wk
